Data: patent publication US6492422B2, “Tricyclic sulfonamides and their derivatives as inhibitors of matrix metalloproteinases” (Warner-Lambert Company, priority 1998, dated 2002)

Columns and labels:
[1] = target: MMP-14CD (membrane-type MMP-1) (Homo sapiens, UniProt P50281); experiment: MMP inhibition, thiopeptolide substrate, MMP-14CD; format: biochemical; conditions: thiopeptolide substrate Ac-Pro-Leu-Gly-thioester-Leu-Leu-Gly-OEt; catalytic domain
Procedure: (§1) Experiments were carried out with the full-length and catalytic domains of the proteinases. […] IC50 values were determined using a thiopeptolide substrate, Ac-Pro-Leu-Gly-thioester-Leu-Leu-Gly-OEt (Ye Q.-Z., Johnson L. L., Hupe D. J., and Baragi V., “Purification and Characterization of the Human Stromelysin Catalytic Domain Expressed in Escherichia coli,” Biochemistry, 1992;31:11231-11235; Ye Q.-Z., Johnson L. L., Yu A. E., and Hupe D., “Reconstructed 19 kDa catalytic domain of gelatinase A is an active proteinase,” i Biochemistry, 1995;34:47024708.) MMP-13CD was expressed from a synthetic gene and purified from Escherichia coli cell culture according to a previously described method (Ye Q.-Z., Johnson L. L., and Baragi V., “Gene synthesis and expression in E. coli for PUMP, a human matrix metalloproteinase,” Biochemical and Biophysical Research Communications, 1992;186:143-149).

[2] = target: T1, MMP-9FL (gelatinase B full length enzyme) (Homo sapiens, UniProt P14780); experiment: MMP inhibition, thiopeptolide substrate, MMP-9FL; format: biochemical; conditions: thiopeptolide substrate Ac-Pro-Leu-Gly-thioester-Leu-Leu-Gly-OEt
T1 construct: MMP-9-FL (gelatinase B full length enzyme)
T1 sequence (P14780 94-707): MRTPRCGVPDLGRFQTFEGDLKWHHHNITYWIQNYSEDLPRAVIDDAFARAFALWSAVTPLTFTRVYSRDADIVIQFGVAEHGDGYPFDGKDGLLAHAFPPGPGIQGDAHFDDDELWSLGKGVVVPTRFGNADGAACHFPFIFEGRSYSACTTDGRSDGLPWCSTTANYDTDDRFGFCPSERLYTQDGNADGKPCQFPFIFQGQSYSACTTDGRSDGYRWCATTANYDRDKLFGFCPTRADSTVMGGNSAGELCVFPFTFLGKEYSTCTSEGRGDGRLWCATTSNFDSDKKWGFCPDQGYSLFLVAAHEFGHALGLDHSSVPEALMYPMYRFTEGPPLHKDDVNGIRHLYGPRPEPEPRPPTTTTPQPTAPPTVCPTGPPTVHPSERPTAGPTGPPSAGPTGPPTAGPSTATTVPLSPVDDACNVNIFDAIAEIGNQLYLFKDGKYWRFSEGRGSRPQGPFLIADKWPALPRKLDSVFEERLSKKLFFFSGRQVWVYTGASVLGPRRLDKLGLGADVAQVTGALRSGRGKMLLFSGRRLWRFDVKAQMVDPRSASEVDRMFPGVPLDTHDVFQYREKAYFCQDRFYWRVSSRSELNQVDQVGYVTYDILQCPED
Procedure: as §1

[3] = target: T2, MMP-13CD (collagenase-3 catalytic domain) (Homo sapiens, UniProt P45452); experiment: MMP inhibition, thiopeptolide substrate, MMP-13CD; format: biochemical; conditions: thiopeptolide substrate Ac-Pro-Leu-Gly-thioester-Leu-Leu-Gly-OEt; catalytic domain expressed in Escherichia coli
T2 construct: MMP-13CD (collagenase-3 catalytic domain); made in house; host or cells: Escherichia coli
Procedure: as §1

[4] = target: T3, MMP-7FL (matrilysin full length enzyme) (Homo sapiens, UniProt P09237); experiment: MMP inhibition, thiopeptolide substrate, MMP-7FL; format: biochemical; conditions: thiopeptolide substrate Ac-Pro-Leu-Gly-thioester-Leu-Leu-Gly-OEt
T3 construct: MMP-7FL (matrilysin full length enzyme)
T3 sequence (P09237 95-267): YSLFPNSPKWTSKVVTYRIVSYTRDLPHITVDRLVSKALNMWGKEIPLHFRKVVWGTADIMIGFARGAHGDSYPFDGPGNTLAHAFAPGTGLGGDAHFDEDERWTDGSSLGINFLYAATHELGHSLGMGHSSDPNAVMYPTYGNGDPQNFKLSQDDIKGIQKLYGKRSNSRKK
Procedure: as §1

[5] = target: T4, MMP-1FL (collagenase-1 full length enzyme) (Homo sapiens, UniProt P03956); experiment: MMP inhibition, thiopeptolide substrate, MMP-1FL; format: biochemical; conditions: thiopeptolide substrate Ac-Pro-Leu-Gly-thioester-Leu-Leu-Gly-OEt
T4 construct: MMP-IFL (collagenase-1 full length enzyme)
T4 sequence (P03956 100-469): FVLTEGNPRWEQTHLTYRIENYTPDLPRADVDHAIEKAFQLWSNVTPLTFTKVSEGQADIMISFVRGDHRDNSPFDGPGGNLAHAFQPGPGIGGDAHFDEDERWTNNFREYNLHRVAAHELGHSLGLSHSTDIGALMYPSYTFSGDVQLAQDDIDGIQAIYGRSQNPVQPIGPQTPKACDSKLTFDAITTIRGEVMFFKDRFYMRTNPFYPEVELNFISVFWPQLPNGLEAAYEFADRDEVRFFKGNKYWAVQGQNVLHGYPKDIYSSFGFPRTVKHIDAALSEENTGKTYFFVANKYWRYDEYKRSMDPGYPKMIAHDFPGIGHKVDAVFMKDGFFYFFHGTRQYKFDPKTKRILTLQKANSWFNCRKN
Procedure: as §1

[6] = target: MMP-2CD (gelatinase A catalytic domain) (Homo sapiens, UniProt P08253); experiment: MMP inhibition, thiopeptolide substrate, MMP-2CD; format: biochemical; conditions: thiopeptolide substrate Ac-Pro-Leu-Gly-thioester-Leu-Leu-Gly-OEt
Sequence of MMP-2CD (gelatinase A catalytic domain) (P08253 with tags, fused parts or gaps DEL222-396): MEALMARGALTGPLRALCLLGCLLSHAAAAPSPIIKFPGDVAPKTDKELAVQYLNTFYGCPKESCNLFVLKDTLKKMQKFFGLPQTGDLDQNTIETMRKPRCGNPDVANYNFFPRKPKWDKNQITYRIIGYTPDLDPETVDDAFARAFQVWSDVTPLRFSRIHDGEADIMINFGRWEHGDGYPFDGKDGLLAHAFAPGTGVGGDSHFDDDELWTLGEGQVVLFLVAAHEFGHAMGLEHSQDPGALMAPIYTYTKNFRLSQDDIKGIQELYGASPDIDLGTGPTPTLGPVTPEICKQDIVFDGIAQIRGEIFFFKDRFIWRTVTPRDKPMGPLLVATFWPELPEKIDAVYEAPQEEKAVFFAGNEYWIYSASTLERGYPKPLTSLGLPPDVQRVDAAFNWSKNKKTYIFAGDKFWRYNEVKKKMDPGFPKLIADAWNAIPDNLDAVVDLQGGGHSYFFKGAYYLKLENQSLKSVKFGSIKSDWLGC
Procedure: as §1

[7] = target: T5, MMP-2FL (gelatinase A full length enzyme) (Homo sapiens, UniProt P08253); experiment: MMP inhibition, thiopeptolide substrate, MMP-2FL; format: biochemical; conditions: thiopeptolide substrate Ac-Pro-Leu-Gly-thioester-Leu-Leu-Gly-OEt
T5 construct: Experiments were carried out with the full-length and catalytic domains of the proteinases
T5 sequence (P08253 110-660): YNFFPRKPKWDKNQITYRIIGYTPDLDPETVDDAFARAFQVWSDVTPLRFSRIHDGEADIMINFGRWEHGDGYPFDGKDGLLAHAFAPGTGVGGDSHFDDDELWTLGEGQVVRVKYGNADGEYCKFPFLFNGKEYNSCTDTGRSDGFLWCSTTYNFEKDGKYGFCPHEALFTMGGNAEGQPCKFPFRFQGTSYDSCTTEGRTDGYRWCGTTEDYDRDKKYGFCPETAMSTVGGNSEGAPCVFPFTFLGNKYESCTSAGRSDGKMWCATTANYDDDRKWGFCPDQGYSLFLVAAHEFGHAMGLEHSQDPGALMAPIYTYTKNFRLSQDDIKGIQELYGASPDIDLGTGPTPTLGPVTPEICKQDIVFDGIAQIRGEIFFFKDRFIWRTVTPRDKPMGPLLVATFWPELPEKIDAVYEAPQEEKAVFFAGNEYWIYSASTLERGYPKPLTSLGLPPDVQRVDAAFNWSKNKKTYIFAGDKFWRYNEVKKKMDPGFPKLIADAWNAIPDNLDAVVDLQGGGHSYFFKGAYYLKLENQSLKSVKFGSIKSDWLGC
Procedure: as §1

[8] = target: T6, MMP-3CD (stromelysin-1 catalytic domain) (Homo sapiens, UniProt P08254); experiment: MMP inhibition, thiopeptolide substrate, MMP-3CD; format: biochemical; conditions: thiopeptolide substrate Ac-Pro-Leu-Gly-thioester-Leu-Leu-Gly-OEt
T6 construct: MMP-3CD (stromelysin-1 catalytic domain)
T6 sequence (P08254 100-272 limits assumed): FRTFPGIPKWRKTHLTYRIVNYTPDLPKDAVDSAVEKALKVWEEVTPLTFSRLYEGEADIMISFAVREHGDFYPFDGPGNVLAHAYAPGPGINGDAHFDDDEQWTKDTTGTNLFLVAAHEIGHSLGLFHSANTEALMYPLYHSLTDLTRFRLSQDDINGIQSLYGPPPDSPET
Procedure: as §1

Row | SMILES | IC50 [1] [µM] | IC50 [2] [µM] | IC50 [3] [µM] | IC50 [4] [µM] | IC50 [5] [µM] | IC50 [6] [µM] | IC50 [7] [µM] | IC50 [8] [µM] | melting point [°C]
1 | CC(C)[C@@H](NS(=O)(=O)c1ccc2c3c(oc2c1)CCCC3)C(=O)O [Example 1, (R) 3-Methyl-2-(6,7,8,9-tetrahydro-dibenzofuran-3-sulfonylamino)-butyric Acid] | 0.38 | 30 | 3.45 | 82 | 6.7 | 0.037 | 0.335 | 0.046 | 
2 | CC(C)[C@H](NS(=O)(=O)c1ccc2c3c(oc2c1)CCCC3)C(=O)O [Example 2, (S) 3-Methyl-2-(6,7,8,9-tetrahydro-dibenzofuran-3-sulfonylamino)-butyric Acid] | 0.155 | 100 | 2.3 | 7.5 | 6.05 | 0.034 | 0.43 | 0.0245 | 162 to 165
3 | O=C(O)C[C@H](NS(=O)(=O)c1ccc2c3c(oc2c1)CCCC3)C(=O)O [Example 3, (S) 2-(6,7,8,9-Tetrahydro-dibenzofuran-3-sulfonylamino)-succinic Acid] | 0.048 | 100 | 0.97 | 3.2 | 16 | 0.0167 | 0.45 | 0.0056 | 176 to 179
4 | O=C(O)[C@H](CCc1ccccc1)NS(=O)(=O)c1ccc2c3c(oc2c1)CCCC3 [Example 4, (S) 4-Phenyl-2-(6,7,8,9-tetrahydro-dibenzofuran-3-sulfonylamino)-butyric Acid] | 0.064 | 28 | 1.34 | 2.3 | 25 | 0.018 | 0.15 | 0.0215 | 167 to 169
